This note sets out measurements from ChEMBL document CHEMBL1153855, “Discovery of a new family of bis-8-hydroxyquinoline substituted benzylamines with pro-apoptotic activity in cancer cells: synthesis, structure-activity relationship, and action mechanism studies” (2009).

Assay [1] in a line: Cytotoxicity against human KB-3-1 cells after 72 hrs by MTS assay. It is filed as functional. The following applies: KB 3-1, 72 h.
Assay [2] deals with HL-60. As to the kind of experiment: Antiproliferative activity against human HL60 cells at 10 uM after 24 hrs by trypan blue exclusion assay in absence of CuCl2. It is filed as functional, cell-based.
A short description of assay [3]: Cytotoxicity against human KB3 cells. The class given is functional.
The test system of assay [4] is HL-60. As to the kind of experiment: Induction of apoptosis in human HL60 cells assessed as activation of caspase 9 at 1 uM. The class given is functional, cell-based.
In assay [5] the test system is SF-268. As to the kind of experiment: Cytotoxicity against human SF268 cells. The class given is functional.
The subject of assay [6] is HepG2. As to the kind of experiment: Cytotoxicity against human HepG2 cells. The class given is functional.
Assay [7] deals with HCT-116. As to the kind of experiment: Cytotoxicity against human HCT116 cells. It is filed as functional.
Assay [8] relates to MCF7. As to the kind of experiment: Cytotoxicity against human MCF7 cells. The class given is functional.
The test system of assay [9] is A549. As to the kind of experiment: Cytotoxicity against human A549 cells. It is filed as functional.
Assay [10] has as its system HCT-15. As to the kind of experiment: Cytotoxicity against human HCT15 cells expressing P-gp. The class given is functional.
Assay [11] has as its system HL-60. As to the kind of experiment: Induction of apoptosis in human HL60 cells assessed as activation of caspase 3/7 at 0.01 uM. It is filed as functional, cell-based.
The test system of assay [12] is HL-60. As to the kind of experiment: Induction of apoptosis in human HL60 cells assessed as activation of caspase 3/7. It is filed as functional, cell-based.
In assay [13] the test system is HL-60. As to the kind of experiment: Antiproliferative activity against human HL60 cells at 10 uM after 24 hrs by trypan blue exclusion assay in presence of CuCl2. The class given is functional, cell-based.
For assay [14], the system named is MCF7. As to the kind of experiment: Cytotoxicity against multidrug-resistant human MCF7 cells expressing P-gp. It is filed as functional.
The test system of assay [15] is HL-60. As to the kind of experiment: Induction of apoptosis in human HL60 cells assessed as activation of caspase 3/7 at 1 uM. The class given is functional, cell-based.
In assay [16] the test system is HL-60. As to the kind of experiment: Induction of apoptosis in human HL60 cells assessed as PARP cleavage at 10 uM after 24 hrs by Western blot. It is filed as functional, cell-based. A general note: Immunoblotting shows a protein as a band on a membrane.
Assay [17] in a line: Inhibition of chymotrypsin-like activity in proteasome. It is filed as subcellular.
For assay [18], the system named is HL-60. As to the kind of experiment: Induction of apoptosis in human HL60 cells assessed as activation of caspase 8 at 1 uM. It is filed as functional, cell-based.
The subject of assay [19] is K562. As to the kind of experiment: Cytotoxicity against human K562 cells. It is filed as functional.
Assay [20] in a line: Inhibition of trypsin-like activity in proteasome. It is filed as subcellular.
Assay [21] relates to PC-3. As to the kind of experiment: Cytotoxicity against human PC3 cells. The class given is functional.
Assay [22] has as its system SK-OV-3. As to the kind of experiment: Cytotoxicity against human SKOV3 cells. The class given is functional.
Assay [23] relates to HL-60. As to the kind of experiment: Induction of apoptosis in human HL60 cells assessed as activation of caspase 3/7 at 0.1 uM. The class given is functional, cell-based.
Assay [24] relates to HL-60. As to the kind of experiment: Cytotoxicity against human HL60 cells. The class given is functional.
Assay [25] is filed under the species Ovis aries. As to the kind of experiment: Inhibition of lamb brain tubulin assembly at 37 deg C.
The species named for assay [26] is Ovis aries. As to the kind of experiment: Inhibition of lamb brain microtubule disassembly at 4 deg C.

The structures appear in SMILES notation. Active and inactive are the calls of the source. No cut-off for these calls is given here.

What is called CC50 is the concentration that lowers cell viability or growth by half. Read a high CC50 as lower toxicity to the cells. Consider `Oc1ccc(CN(Cc2ccccc2C(F)(F)F)Cc2ccc(O)c3ncccc23)c2cccnc12`, for which half-maximal cytotoxicity in assay [1] (CC50) was put at 123 nM.
In the case of `CC(C)(C)OC(=O)N(Cc1ccc(C(F)(F)F)cc1)Cc1ccc(O)c2ncccc12`, in assay [1], the midpoint of cytotoxicity, the CC50, lay at 10000 nM.
For `Oc1c(I)cc(Cl)c2cccnc12`, the result in [2] was inactive.
`Cc1ccc([C@H](C)NCc2ccc(O)c3ncccc23)cc1`: the cytotoxic concentration (CC50) in assay [1] is > 1000 nM.
On to `Cc1ccc(CN(Cc2ccc(O)c3ncccc23)Cc2ccc(O)c3ncccc23)cc1`, for which the CC50 turned out to be 8.5 nM in [3]; 178 nM in [5]; 52.1 nM in assay [6]; 3.2 nM in assay [7]; 5.4 nM in [8]; 4.3 nM in assay [9]. Moreover, the cytotoxic concentration (CC50) in [10] came out at 6 nM; in assay [1] it was 2.6 nM; in assay [14], 37.3 nM; in [19], 40.8 nM; in assay [21], 343 nM; in assay [22], 8 nM. For the same compound, in assay [24], the 50% cytotoxic concentration (CC50) is 32.7 nM. The outcome in assay [4], in [11], in [2], in [16], in [17] and in assay [18] was inactive. Further, in assay [20], the outcome was inactive. Moreover, in [12], the Activity entry was “Dose-dependent effect”. Also, the outcome in [13], in [15] and in assay [23] was Active.
`CC(C)(C)OC(=O)N(Cc1ccccc1C(F)(F)F)Cc1ccc(O)c2ncccc12`: the half-maximal cytotoxic concentration (CC50) in assay [1] came to 1000 nM.
With `Oc1ccc(CNCc2ccccc2C(F)(F)F)c2cccnc12`, the 50% cytotoxic concentration (CC50) in [1] turned out to be 200 nM.
Take `Oc1ccc(CN(Cc2ccccc2)Cc2ccc(O)c3ncccc23)c2cccnc12`: it took 15 nM to reach half-maximal cytotoxicity in assay [1] (CC50).
The same measure, in the same setting: the value for `O=[N+]([O-])c1ccc(CN(Cc2ccc(O)c3ncccc23)Cc2ccc(O)c3ncccc23)cc1` was 42 nM; that for `Oc1ccc(CNCc2ccc(C(F)(F)F)cc2)c2cccnc12` was 10000 nM; that for `CC(=O)O[C@@]12CO[C@@H]1C[C@H](O)[C@@]1(C)C(=O)[C@H](O)C3=C(C)[C@@H](OC(=O)[C@H](O)[C@@H](NC(=O)OC(C)(C)C)c4ccccc4)C[C@@](O)([C@@H](OC(=O)c4ccccc4)[C@H]21)C3(C)C` [DOCETAXEL] was 0.25 nM.
Regarding `Oc1ccc(CN(Cc2ccc(C(F)(F)F)cc2)Cc2ccc(O)c3ncccc23)c2cccnc12`, the cytotoxic concentration (CC50) in assay [3] stood at 1.5 nM; in assay [5], 91 nM; in assay [6], 22.8 nM; in [7], 1 nM; in assay [8], 1.2 nM; in assay [9] it was 0.9 nM. The 50% cytotoxic concentration (CC50) in assay [10] came to 0.8 nM; in assay [1] it was 1.3 nM; in assay [14], 4.7 nM; in assay [19], 5.2 nM; in [21] it was 206 nM; in assay [22] it was 3 nM. In assay [24], this compound came in with a 50% cytotoxic concentration (CC50) of 10.9 nM. Moreover, the result in assay [4], in assay [25], in [11], in assay [2], in assay [16] and in [17] was inactive. In addition, the outcome in [18] and in [20] was inactive. Also, in [12], the Activity result was “Dose-dependent effect”. Also, the result in assay [26], in assay [13], in assay [15] and in [23] was Active.
`Cc1ccc([C@H](C)N(Cc2ccc(O)c3ncccc23)Cc2ccc(O)c3ncccc23)cc1` registered a 50% cytotoxic concentration (CC50) in assay [1] of 41 nM.
`CC(=O)O[C@H]1C(=O)[C@@]2(C)[C@H]([C@H](OC(=O)c3ccccc3)[C@]3(O)C[C@H](OC(=O)[C@H](O)[C@@H](NC(=O)c4ccccc4)c4ccccc4)C(C)=C1C3(C)C)[C@]1(OC(C)=O)CO[C@@H]1C[C@@H]2O` [PACLITAXEL] came in with a 50% cytotoxic concentration (CC50) in assay [3] of 0.1 nM. This counts as sub-nanomolar.
`Cc1ccc(CNCc2ccc(O)c3ncccc23)cc1`: the half-maximal cytotoxic concentration (CC50) in [1] was > 10000 nM.
For `Oc1ccc(CNCc2ccccc2)c2cccnc12`, the CC50 in assay [1] is > 1000 nM.
`Oc1ccc(CN(Cc2cccc3ccccc23)Cc2ccc(O)c3ncccc23)c2cccnc12` came in with a CC50 in assay [1] of 5 nM. In other words, the single-digit nanomolar range.
Turning to `Cc1ccc([C@H](C)N(Cc2ccc(O)c3ncccc23)C(=O)OC(C)(C)C)cc1`, the half-maximal cytotoxic concentration (CC50) in assay [1] is > 1000 nM.
In the case of `Oc1ccc(CNCc2cccc3ccccc23)c2cccnc12`, in assay [1], the CC50 was > 1000 nM.
